Measurements reported in patent US20250051367A1, “HETEROCYCLE-CONTAINING LONP1 INHIBITOR COMPOUNDS, USES AND METHODS” (Pretzel Therapeutics, Inc., priority 2021, published 2025).

molecular target: LONP1 (NM_004793.4) (Homo sapiens (Human), UniProt P36776); assay: LONP1 FRET-based protease activity assay (fluorogenic peptide substrate); format: biochemical; conditions: substrate 3 μM, LONP1 15 nM, 1 hour at 37° C.; average of a minimum of two repeats
Description: The inhibitory activity of the compounds of the present invention against LONP1, 20S proteasome and other proteases are determined by assays known to persons of ordinary skill in the art (see, e.g., Fishovitz, J. et al. “Active-Site-Directed Chemical Tools for Profiling Mitochondrial Lon Protease” ACS Chem. Biol. 6, 781-788 (2011)).
In this Example, LONP1 (NM_004793.4) activity was measured by a FRET-based assay for protease activity using a fluorogenic peptide DabcylYRGIT(2Abu)SGRQK(5-FAM) (Cambridge Research Biochemicals) as substrate. LONP1 activity is followed by an increase in fluorescence signal due to the degradation of the peptide. Inhibition of LONP1 protease activity by an inhibitor compound of the disclosure elicits a decrease in the fluorescent signal.
The assay is performed in a 384-well plate (Greiner, cat. #781076) using the following reagents and conditions: substrate (3 μM) was incubated for 1 hour at 37° C. in the presence of LONP1 (15 nM as monomer), 25 mM Tris pH 8.0, 10 mM MgCl2, 0.03 mg/mL BSA, 0.5 mM DTT, 0.0003% Tween-20, 10 mM NaCl, 0.06 mM ATP and 0.5 mM EGTA in a 15 μL final volume. The LONP1-containing mix (10 μL) was incubated with the test compound for 15 min at 37° C. before adding the peptide-containing mix (5 μL). Solutions were dispensed using a small cassette-Multidrop Combi (Thermo Scientific). Fluorescence was measured using a PheraStar plate reader (BMG Labtech) FI-FRET EX 485 nm Em 520 nm.
Each value is based on an average of a minimum of two repeats.

LONP1 (NM_004793.4), sequence (P36776 68-959): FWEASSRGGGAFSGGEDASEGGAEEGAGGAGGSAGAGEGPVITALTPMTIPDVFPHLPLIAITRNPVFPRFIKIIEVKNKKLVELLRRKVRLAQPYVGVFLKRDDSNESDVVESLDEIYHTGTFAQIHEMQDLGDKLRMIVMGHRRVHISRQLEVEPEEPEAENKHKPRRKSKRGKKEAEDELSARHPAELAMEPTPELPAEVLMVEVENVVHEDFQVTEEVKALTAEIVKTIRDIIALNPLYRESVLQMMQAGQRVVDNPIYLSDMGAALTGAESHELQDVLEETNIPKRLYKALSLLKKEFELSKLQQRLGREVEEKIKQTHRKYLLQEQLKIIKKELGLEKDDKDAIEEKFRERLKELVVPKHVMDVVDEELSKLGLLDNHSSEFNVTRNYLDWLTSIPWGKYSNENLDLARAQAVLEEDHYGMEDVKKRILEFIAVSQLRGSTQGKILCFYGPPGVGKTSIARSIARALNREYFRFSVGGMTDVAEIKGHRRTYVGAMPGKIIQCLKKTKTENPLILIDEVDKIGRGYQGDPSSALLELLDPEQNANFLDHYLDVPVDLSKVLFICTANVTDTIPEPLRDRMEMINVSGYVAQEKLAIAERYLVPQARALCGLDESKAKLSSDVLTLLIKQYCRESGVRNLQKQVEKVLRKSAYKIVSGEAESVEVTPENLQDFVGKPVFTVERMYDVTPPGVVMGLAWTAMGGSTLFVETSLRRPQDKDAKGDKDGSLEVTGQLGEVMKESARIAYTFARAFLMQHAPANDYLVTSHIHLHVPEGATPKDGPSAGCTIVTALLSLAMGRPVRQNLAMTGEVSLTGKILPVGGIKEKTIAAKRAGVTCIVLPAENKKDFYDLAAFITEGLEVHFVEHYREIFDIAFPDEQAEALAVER

Row | IC50 | SMILES
1 | < 50 nM | Cn1ccc(C[C@@H](NC(=O)c2cnccn2)C(=O)N[C@H](CCCc2ccccc2)B(O)O)n1 (stereo in doubt) [Compound 4, ((S)-1-((R)-3-(1-methyl-1H-pyrazol-3-yl)-2-(pyrazine-2-carboxamido)propanamido)-4-phenylbutyl)boronic acid]
2 | < 50 nM | O=C(N[C@H](Cc1nccs1)C(=O)N[C@@H](CCCc1ccccc1)B(O)O)c1cnccn1 [Compound 1, ((R)-4-phenyl-1-((R)-2-(pyrazine-2-carboxamido)-3-(thiazol-2-yl)propanamido)butyl)boronic acid]
3 | < 50 nM | O=C(N[C@@H](Cc1nccs1)C(=O)N[C@@H](CCCc1ccccc1)B(O)O)c1cnccn1 [Compound 2, ((R)-4-phenyl-1-((S)-2-(pyrazine-2-carboxamido)-3-(thiazol-2-yl)propanamido)butyl)boronic acid]
4 | < 50 nM | Cn1ccc(C[C@@H](NC(=O)c2cnccn2)C(=O)N[C@@H](CCCc2ccccc2)B(O)O)n1 [Compound 3, ((R)-1-((R)-3-(1-methyl-1H-pyrazol-3-yl)-2-(pyrazine-2-carboxamido)propanamido)-4-phenylbutyl)boronic acid]
5 | < 50 nM | O=C(N[C@H](Cc1cnco1)C(=O)N[C@@H](CCCc1ccccc1)B(O)O)c1cnccn1 [Compound 5, ((R)-1-((R)-3-(oxazol-5-yl)-2-(pyrazine-2-carboxamido)propanamido)-4-phenylbutyl)boronic acid]
6 | < 50 nM | O=C(N[C@@H](Cc1cnco1)C(=O)N[C@@H](CCCc1ccccc1)B(O)O)c1cnccn1 [Compound 6]
7 | 50 to 500 nM | O=C(N[C@H](Cc1c[nH]c2ccccc12)C(=O)N[C@@H](CCCc1ccccc1)B(O)O)c1cnccn1 [Compound 7, ((R)-1-((R)-3-(1H-indol-3-yl)-2-(pyrazine-2-carboxamido)propanamido)-4-phenylbutyl)boronic acid]
8 | 50 to 500 nM | CC(C)C[C@H](NC(=O)[C@@H](Cc1nccn1C)NC(=O)c1cnccn1)B(O)O [Compound 8, ((R)-3-methyl-1-((R)-3-(1-methyl-1H-imidazol-2-yl)-2-(pyrazine-2-carboxamido)propanamido)butyl)boronic acid]
9 | 50 to 500 nM | CC(C)C[C@H](NC(=O)[C@H](Cc1nccn1C)NC(=O)c1cnccn1)B(O)O [Compound 9, ((R)-3-methyl-1-((S)-3-(1-methyl-1H-imidazol-2-yl)-2-(pyrazine-2-carboxamido)propanamido)butyl)boronic acid]
10 | < 50 nM | O=C(N[C@H](Cc1ncco1)C(=O)N[C@@H](CCCc1ccccc1)B(O)O)c1cnccn1 [Compound 10, ((R)-1-((R)-3-(oxazol-2-yl)-2-(pyrazine-2-carboxamido)propanamido)-4-phenylbutyl)boronic acid]
11 | < 50 nM | O=C(N[C@@H](Cc1ncco1)C(=O)N[C@@H](CCCc1ccccc1)B(O)O)c1cnccn1 [Compound 11, ((R)-1-((S)-3-(oxazol-2-yl)-2-(pyrazine-2-carboxamido)propanamido)-4-phenylbutyl)boronic acid]
12 | < 50 nM | Cn1ccnc1C[C@@H](NC(=O)c1cnccn1)C(=O)N[C@@H](CCCc1ccccc1)B(O)O [Compound 12, ((R)-1-((R)-3-(1-methyl-1H-Imidazol-2-yl)-2-(pyrazine-2-carboxamido)propanamido)-4-phenylbutyl)boronic acid]
13 | 50 to 500 nM | Cn1ccnc1C[C@H](NC(=O)c1cnccn1)C(=O)N[C@@H](CCCc1ccccc1)B(O)O [Compound 13, ((R)-1-((S)-3-(1-methyl-1H-imidazol-2-yl)-2-(pyrazine-2-carboxamido)propanamido)-4-phenylbutyl)boronic acid]
